Laboratory results as given in ChEMBL document CHEMBL2396541, “Synthesis and in vitro evaluation of glycosyl derivatives of luteinizing hormone-releasing hormone (LHRH)” (Bioorg Med Chem, 2013).

Tests used:
[1] = test system: Caco-2; experiment: Prodrug activation in human Caco2 cell homogenates assessed as LHRH release after 2 hrs; assay type: cell-based; conditions: caco-2, 2 h
[2] = Half life in human Caco2 cell homogenates at 200 uM by LC-MS analysis; assay type: ADME, cell-based; conditions: Caco-2 cell homogenates
[3] = Apparent permeability across human Caco2 cells at 200 uM up to 120 mins by LC-MS analysis; assay type: ADME, cell-based; conditions: Caco-2
[4] = Half life in human plasma; assay type: ADME, cell-free
[5] = Half life in human; assay type: ADME, organism-based; conditions: in vivo

With `CC(C)C[C@H](NC(=O)CNC(=O)[C@H](Cc1ccc(O)cc1)NC(=O)[C@H](CO)NC(=O)[C@H](Cc1c[nH]c2ccccc12)NC(=O)[C@H](Cc1cnc[nH]1)NC(=O)[C@H](CCC(N)=O)NC(=O)CCC(=O)N[C@@H]1O[C@H](CO)[C@H](O)[C@H](O)[C@H]1O)C(=O)N[C@@H](CCCNC(=N)N)C(=O)N1CCC[C@H]1C(=O)NCC(N)=O` the Drug metabolism [1] was “Not Active”, the half-life at 200 µM [2] was 92.2 min and the Papp at 2 h, 200 µM [3] was 1.62 ×10⁻⁶ cm/s.
Work on `CC(C)C[C@H](NC(=O)CNC(=O)[C@H](Cc1ccc(O)cc1)NC(=O)[C@H](CO)NC(=O)[C@H](Cc1c[nH]c2ccccc12)NC(=O)[C@H](Cc1cnc[nH]1)NC(=O)[C@@H]1CCC(=O)N1)C(=O)N[C@@H](CCCNC(=N)N)C(=O)N1CCC[C@H]1C(=O)NCC(N)=O` [GONADORELIN] yielded a half-life at 200 µM [2] of 32.6 min, a Papp at 2 h, 200 µM [3] of 0.398 ×10⁻⁶ cm/s and a half-life [4] of 3 min.
Work on `CC(C)C[C@H](NC(=O)[C@@H](Cc1c[nH]c2ccccc12)NC(=O)[C@H](Cc1ccc(O)cc1)NC(=O)[C@H](CO)NC(=O)[C@H](Cc1c[nH]c2ccccc12)NC(=O)[C@H](Cc1cnc[nH]1)NC(=O)[C@H](CCC(N)=O)NC(=O)CCC(=O)N[C@@H]1O[C@H](CO)[C@@H](O[C@@H]2O[C@H](CO)[C@H](O)[C@H](O)[C@H]2O)[C@H](O)[C@H]1O)C(=O)N[C@@H](CCCNC(=N)N)C(=O)N1CCC[C@H]1C(=O)NCC(N)=O` yielded a half-life at 200 µM [2] of 133 min and a half-life [5] of 3 min.
In the case of `CC(C)C[C@H](NC(=O)CNC(=O)[C@H](Cc1ccc(O)cc1)NC(=O)[C@H](CO)NC(=O)[C@H](Cc1c[nH]c2ccccc12)NC(=O)[C@H](Cc1cnc[nH]1)NC(=O)[C@H](CCC(N)=O)NC(=O)CCC(=O)N[C@@H]1O[C@H](CO)[C@@H](O)[C@H](O)[C@H]1O)C(=O)N[C@@H](CCCNC(=N)N)C(=O)N1CCC[C@H]1C(=O)NCC(N)=O`, the Drug metabolism [1] is reported as “Not Active”, the half-life at 200 µM [2] is reported as 73.5 min and the Papp at 2 h, 200 µM [3] is reported as 2.31 ×10⁻⁶ cm/s.
In the case of `CC(C)C[C@H](NC(=O)CNC(=O)[C@H](Cc1ccc(O)cc1)NC(=O)[C@H](CO)NC(=O)[C@H](Cc1c[nH]c2ccccc12)NC(=O)[C@H](Cc1cnc[nH]1)NC(=O)[C@H](CCC(=O)O)NC(=O)CCC(=O)N[C@@H]1O[C@H](CO)[C@@H](O)[C@H](O)[C@H]1O)C(=O)N[C@@H](CCCNC(=N)N)C(=O)N1CCC[C@H]1C(=O)NCC(N)=O`, the Drug metabolism [1] is reported as “Not Active”, the half-life at 200 µM [2] is reported as 56.7 min and the Papp at 2 h, 200 µM [3] is reported as 2.65 ×10⁻⁶ cm/s.
`CC(C)C[C@H](NC(=O)[C@@H](Cc1c[nH]c2ccccc12)NC(=O)[C@H](Cc1ccc(O)cc1)NC(=O)[C@H](CO)NC(=O)[C@H](Cc1c[nH]c2ccccc12)NC(=O)[C@H](Cc1c[nH]cn1)NC(=O)[C@@H]1CCC(=O)N1)C(=O)N[C@@H](CCCNC(=N)N)C(=O)N1CCC[C@H]1C(=O)NCC(N)=O` [TRIPTORELIN] showed a half-life at 200 µM [2] of 186 min.
`CC(C)C[C@H](NC(=O)CNC(=O)[C@H](Cc1ccc(O)cc1)NC(=O)[C@H](CO)NC(=O)[C@H](Cc1c[nH]c2ccccc12)NC(=O)[C@H](Cc1cnc[nH]1)NC(=O)[C@@H](N)CCC(=O)O)C(=O)N[C@@H](CCCNC(=N)N)C(=O)N1CCC[C@H]1C(=O)NCC(=O)N[C@@H]1O[C@H](C(N)=O)[C@@H](O)[C@H](O)[C@H]1O` gave a half-life at 200 µM [2] of 28.4 min.
With `CC(C)C[C@H](NC(=O)CNC(=O)[C@H](Cc1ccc(O)cc1)NC(=O)[C@H](CO)NC(=O)[C@H](Cc1c[nH]c2ccccc12)NC(=O)[C@H](Cc1cnc[nH]1)NC(=O)[C@H](CCC(=O)O)NC(=O)CCC(=O)N[C@@H]1O[C@H](CO)[C@@H](O[C@@H]2O[C@H](CO)[C@H](O)[C@H](O)[C@H]2O)[C@H](O)[C@H]1O)C(=O)N[C@@H](CCCNC(=N)N)C(=O)N1CCC[C@H]1C(=O)NCC(N)=O` the Drug metabolism [1] was “Not Active”, the half-life at 200 µM [2] was 77 min and the Papp at 2 h, 200 µM [3] was 2.87 ×10⁻⁶ cm/s.
For `CC(C)C[C@H](NC(=O)CNC(=O)[C@H](Cc1ccc(O)cc1)NC(=O)[C@H](CO)NC(=O)[C@H](Cc1c[nH]c2ccccc12)NC(=O)[C@H](Cc1cnc[nH]1)NC(=O)[C@H](CCC(N)=O)NC(=O)CCC(=O)N[C@@H]1O[C@H](CO)[C@@H](O[C@@H]2O[C@H](CO)[C@H](O)[C@H](O)[C@H]2O)[C@H](O)[C@H]1O)C(=O)N[C@@H](CCCNC(=N)N)C(=O)N1CCC[C@H]1C(=O)NCC(N)=O`, the Drug metabolism [1] was “Not Active”, the half-life at 200 µM [2] was 133 min and the Papp at 2 h, 200 µM [3] was 0.76 ×10⁻⁶ cm/s.
In the case of `CC(C)C[C@H](NC(=O)CNC(=O)[C@H](Cc1ccc(O)cc1)NC(=O)[C@H](CO)NC(=O)[C@H](Cc1c[nH]c2ccccc12)NC(=O)[C@H](Cc1cnc[nH]1)NC(=O)[C@H](CCC(=O)O)NC(=O)CCC(=O)N[C@@H]1O[C@H](CO)[C@H](O)[C@H](O)[C@H]1O)C(=O)N[C@@H](CCCNC(=N)N)C(=O)N1CCC[C@H]1C(=O)NCC(N)=O`, the Drug metabolism [1] is reported as “Not Active”, the half-life at 200 µM [2] is reported as 51 min and the Papp at 2 h, 200 µM [3] is reported as 1.08 ×10⁻⁶ cm/s.
In the case of `CC(C)C[C@H](NC(=O)CNC(=O)[C@H](Cc1ccc(O)cc1)NC(=O)[C@H](CO)NC(=O)[C@H](Cc1c[nH]c2ccccc12)NC(=O)[C@H](Cc1cnc[nH]1)NC(=O)[C@@H](N)CCC(=O)O)C(=O)N[C@@H](CCCNC(=N)N)C(=O)N1CCC[C@H]1C(=O)NCC(N)=O`, the half-life at 200 µM [2] is reported as 30.4 min.
